Experimental findings from patent US6664231B1, “Anti-fungal peptides” (priority 1993, dated 2003) are described below.

The subject of data set [1] is Candida albicans (SLU-1 and ATCC strains). In words: microbe, parasite or virus in culture. The data set is classed as cell-based. The settings on record: Candida albicans. As to the method: (§1) The anti-fungal activity of Domain III derived peptides was evaluated against a variety of fungal species, including species of Candida. Cryptococcus, Fusarium, Trichophyton, and Aspergillus, by an additional assay protocol utilizing Alamar Blue. Alamar Blue is an indicator dye formulated to measure quantitatively the proliferation of a variety of human or animal cells, bacteria, or fungi. It consists of an oxidation-reduction (REDOX) indicator that yields a colorimetric change in response to metabolic activity. For these experiments, species of Candida and Cryptococcus were grown in Sabouraud's dextrose broth (SDB) overnight. Strains of filamentous fungi (Aspergilius, Fusanum, Trichophyton) were obtained by irrigation of a confluent culture from a petri dish. Cells were washed and adjusted to a concentration of 5.0×10^3/mL in fresh SDB. […] Controls included amphotericin B, fluconazole, ketoconazole and griseofulvin. Antifungal drugs were also diluted in the same manner. Assays were performed in 96-well microuiter plates. […] The wells to be plated were determined by OD590 readings. The lowest concentration of peptide which maintained the blue color (or OD reading) of the blank was chosen along with the next two higher concentrations. Plates were allowed to grow for 18-48 hours depending on the rate of growth of each fungus. Minimal fungicidal activity (MFC) was determined as a 99.9% killing of the starting inoculum.

Data set [2] relates to Aspergillus niger ATCC 16404. Nature of the data set: microbe, parasite or virus in culture. It is filed as cell-based. The settings on record: Aspergillus niger, ATCC16404; read-out: Minimum Fungicidal Concentration, Aspergillus niger ATCC 16404. As to the method:
as §1

The test system of data set [3] is Fusarium solani ATCC 36031. Nature of the data set: microbe, parasite or virus in culture. The settings on record: Fusarium solani, ATCC36031; read-out: Minimum Fungicidal Concentration, Fusarium solani ATCC 36031. It is filed as cell-based. The procedure: as §1
Data set [4] relates to Candida glabrata ATCC 2001. Nature of the data set: microbe, parasite or virus in culture. It is filed as cell-based. The settings on record: Nakaseomyces glabratus, ATCC2001; read-out: Minimum Fungicidal Concentration, Candida glabrata ATCC 2001. As to the method: as §1
For data set [5], the system named is Candida parapsilosis ATCC 22019. Nature of the data set: microbe, parasite or virus in culture. It is filed as cell-based. The settings on record: Lodderomyces parapsilosis, ATCC22019; read-out: Minimum Fungicidal Concentration, Candida parapsilosis ATCC 22019. The procedure: as §1
Data set [6] concerns Candida albicans SLU-2G amphotericin B-resistant strain. Nature of the data set: Radial diffusion assay (Example 3), amphotericin B-resistant strain. The data set is classed as cell-based. The settings on record: FIG. 2B. As to the method:
Domain III derived peptides were tested for their fungicidal activity on amphotericin resistant Candida. Resistant colonies of Candida were isolated using a gradient plate technique. A slanted Sabouraud dextrose agar plate was poured and allowed to harden. The plate was made level and additional agar supplemented with nystatin (Sigma, St. Louis, Mo., cat. no. N-3503) at a concentration of 10 μg/mL was poured. Cells from the CA-1 colony of Candida albicans SLU-1 strain described in Example 2 (10^7 cells in a volume of 100 μL) were spread over the plate and incubated at […] overnight.
(§2) For the radial diffusion assays, Candida albicans SLU-1 were grown as described above and SLU-2G were grown overnight in Sabouraud dextrose broth supplemented with 10 μg/mL amphotericin B and 5 μg/mL ceftriaxone at 37° C. Cultures were diluted 1:25 into fresh, unsupplemented broth and allowed to grow for 5 hours at 37° C. Cells were pelleted at 1,500×g for 5 minutes at 4° C. Supernatant was decanted and replaced with 5 mL of 10 mM phosphate buffer, pH 7.4. After centrifugation the cell pellets were resuspended with 5 mL phosphate buffer for an OD570 determination.
(§3) Cells were added to 10 mL of molten, cooled (˜45° C.) underlayer agarose to a concentration of 1×10^6/mL and the suspension was poured into a level square petri plate with gentle rocking to allow even distribution and solidification to a uniform thickness of about 1 mm. Wells were cut into the hardened agarose with a sterilize, 3 mm diameter punch with vacuum.
Peptides were two-fold serially diluted with DPBS from a starting concentration of approximately 1 mg/mL. […] Five μL were added per well and allowed to diffuse at 37° C. for 1.5-2.0 hours. Then 10 mL of molten overlayer agarose were added and the plates were incubated inverted at 37° C. overnight. Plates were stained with a dilute Coomassie solution, inhibition zones were measured with calipers and net areas were calculated, then converted to pmol values by PROBIT analysis.

A further data set concerns Candida albicans SLU-1. Nature of the data set: Radial diffusion assay (Example 3), wild type strain. The data set is classed as cell-based. The settings on record: FIG. 2A. As to the method:
as §2, with “determination. One OD570 for SLU-1 cells was 3×10^7 CFU/mL and for SLU-2G cells was 5×10^6 CFU/mL.” for “determination.”
as §3
Peptides were two-fold serially diluted with DPBS from a starting concentration of approximately 1 mg/mL. Amphotericin B and nystatin were similarly diluted starting at 100 and 225 μg/mL, respectively. Five μL were added per well and allowed to diffuse at 37° C. for 1.5-2.0 hours. Then 10 mL of molten overlayer agarose were added and the plates were incubated inverted at 37° C. overnight. Plates were stained with a dilute Coomassie solution, inhibition zones were measured with calipers and net areas were calculated, then converted to pmol values by PROBIT analysis. The results of a representative experiment are shown in FIG. 2A for the SLU-1 strain and FIG. 2B for the SLU-2G strain. In FIGS. 2A and 2B, the fungicidal activity is represented for XMP.13 as open circles; for XMP.37 as closed circles; for XMP.97 as open triangles; for XMP.127 as closed triangles; for amphotericin B as open squares; and for nystatin as closed squares. The pmol for a 30 mm^2 zone of inhibition were calculated to be: for XMP.13, 689 pmol against SLU-1 and 129 pmol against SLU-2G; for XMP.37, 231 pmol against SLU-1 and 75 pmol against SLU-2G; for XMP.97, 670 pmol against SLU-1 and 161 pmol against SLU-2G; for XMP.127, 935 pmol against SLU-1 and 116 pmol against SLU-2G; for amphotericin B, 36 pmol against SLU-1 and >541 pmol for SLU-2G; and for nysttin, 98 pmol against SLU-1 and >1,215 pmol against SLU-2G.

The test system of a further data set is Candida glabrata. Nature of the data set: Radial diffusion assay, Candida species (Table 2). It is filed as cell-based. The procedure: (§4) The anti-fungal activity of Domain III derived peptides was also evaluated in vitro against a variety of fungal species, including Candida glabrata, Candida krusei, Candida lusitaniae, Candida parapsilosis, and Candida tropicalis. For these experiments, one colony of each of the above-listed Candida strains was picked from a Sabouraud's dextrose agar (SDA) plate and inoculated into 5 mL of Sabouraud's dextrose broth (SDB, 2% dextrose and 1% neopeptone) or, for C. krusei, Yeast Malt broth (YM, Becton Dickenson, Cockeysville, Md., cat no. BL 11405) in 12 mL polyproplyene snap-cap tubes. The tube cultures were incubated overnight with shaking at 37° C.
(§5) Cultures were harvested when the OD570 of a 1:10 dilution was greater than or equal to the following values: 0.083 for Candida glabrata, 0.154 for Candida krusei, 0.117 for Candida lusitaniae, 0.076 for Candida parapsilosis, and 0.192 for Candida tropicalis. Cells were centrifuged for 7 minutes in an Eppendorf microfuge at 3,000 rpm (about 1,500 g). The cell pellet was resuspended in 1 mL PBS and approximately 1×10^7 cells in about 0.5 mL were added to 10 mL of cooled underlay agar (3% SBD, 1% agarose, 0.02% Tween 20, 10 mM sodium phosphate buffer, pH 7.4 at about 45° C.). The suspension was poured into square petri plates, allowed to solidify, and wells cut as described above.
(§6) Peptides were two-fold serially diluted with D-PBS from about 20 μL of a starting concentration of approximately 1 mg/mL. Five μL of peptide dilution were added per well and allowed to diffuse for at least about 30 minutes into the agar at […] (to allow complete diffusion). Then 10 mL of molten overlayer agarose (6% SDB, 1% agarose, 10 mM sodium phosphate buffer, pH 7.4 at about 45° C.) were added and the plates were incubated inverted at […] overnight. Plates were stained with a dilute Coomassie solution, inhibition zones were measured with calipers and net areas were calculated, then converted to pmole values by PROBIT analysis.

For a further data set, the system named is Candida lusitaniae. Nature of the data set: Radial diffusion assay, Candida species (Table 2). It is filed as cell-based. The procedure:
as §4, §5, §6

The next data set has as its system Candida tropicalis. Nature of the data set: Radial diffusion assay, Candida species (Table 2). The data set is classed as cell-based. The procedure:
as §4, §5, §6

The next data set has as its system Candida krusei. In words: Radial diffusion assay, Candida species (Table 2). The data set is classed as cell-based. As to the method: as §4, §5, §6
The subject of a further data set is Candida parapsilosis. In words: Radial diffusion assay, Candida species (Table 2). The data set is classed as cell-based. The procedure:
as §4, §5, §6

The subject of the next data set is Candida albicans. Nature of the data set: Radial diffusion assay, Candida species (Table 2). The data set is classed as cell-based. The settings on record: higher effective concentration of agarose than Table 1.
For data set [7], the system named is C. albicans (CA-1, Strain SLU-1). In words: Radial diffusion assay. It is filed as cell-based, Candida albicans. The settings on record: pmoles of peptide added to well to achieve a 30 mm^2 zone, PROBIT analysis, crude or purified (P′) peptide. An outline of the steps:
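Peptides, serially diluted 2-fold in D-PBS (top ~1 mg/mL), diffused 3 h at 37° C into pH 7.4 phosphate-buffered agarose seeded with 1×10^6 CFU/mL yeast, before overnight growth under a 6% Sabouraud overlayer. Net inhibition zones measured after Coomassie staining; PROBIT fit of log pmol vs area gave pmol for 30 mm^2.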

Data set [8] has as its system Candida albicans SLU-1 strain. Nature of the data set: Serum stability, anti-fungal activity after serum incubation by radial diffusion bioassay. The data set is classed as in vitro ADME, rat or human serum. An outline of the steps: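 Anti-fungal activity against C. albicans SLU-1 was measured by radial diffusion on peptides recovered from serum. Recovery: 1 mg/mL peptide in equal volume of rat or human serum at 37° C, sampled at 0–4 h, C-18 extraction, HPLC, sequencing and ESI/MS.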

Values after ≈ are worked out from the molar mass of the structure shown. Like-named read-outs stand apart in the source and are kept apart here. Bounds are passed on as bounds.

Consider `CC(=O)N1CCN(c2ccc(OCC3COC(Cn4ccnc4)(c4ccc(Cl)cc4Cl)O3)cc2)CC1` (centres unmarked) [Ketoconazole, ketoconazole], for which the MFC in [1] (ATCC10231, strain ATCC 10231, read-out: Minimum Fungicidal Concentration, Candida albicans ATCC 10231) is greater than 10 µg/mL; in [1] (ATCC18840, strain ATCC 18840, read-out: Minimum Fungicidal Concentration, Candida albicans ATCC 18840), greater than 10 µg/mL; in data set [1] (ATCC26555, strain ATCC 26555, read-out: Minimum Fungicidal Concentration, Candida albicans ATCC 26555) it was greater than 10 µg/mL; in data set [1] (ATCC44808, strain ATCC 44808, read-out: Minimum Fungicidal Concentration, Candida albicans ATCC 44808) it was greater than 10 µg/mL; in [1] (ATCC90028, strain ATCC 90028, read-out: Minimum Fungicidal Concentration, Candida albicans ATCC 90028), greater than 10 µg/mL; in data set [2], greater than 10 µg/mL. The values for the MFC in data set [3], in [4] and in [5] were greater than 10 µg/mL, greater than 10 µg/mL and 5 µg/mL (≈ 9.41 µM), respectively.
Regarding `C[C@@H]1[C@H](O)[C@@H](C)/C=C/C=C/CC/C=C/C=C/C=C/C=C/C(O[C@H]2O[C@H](C)[C@@H](O)[C@H](N)[C@@H]2O)CC2O[C@](O)(CC(O)C(O)CCC(O)CC(O)CC(O)CC(=O)O[C@H]1C)CC(O)C2C(=O)O` (some centres unmarked) [nystatin, reference compound], the “pmol for a 30 mm^2 zone of inhibition against SLU-2G” value in [6] is given as > 1,215 pmol. In the data set on Candida albicans SLU-1, the “pmol for a 30 mm^2 zone of inhibition against SLU-1” value turned out to be 98 pmol.
Consider H-HHWLIQLHH-NH2 [XMP.337], for which the “Anti-fungal activity: pmol/30 mm^2 zone, Candida glabrata” value with Candida glabrata is “b (No detectable activity up to 5 μg/well)”. Further, in the data set on Candida lusitaniae, the “Anti-fungal activity: pmol/30 mm^2 zone, Candida lusitaniae” value is 6,928 pmol/30 mm^2 zone. For the same molecule, the “Anti-fungal activity: pmol/30 mm^2 zone, Candida tropicalis” value in the data set with Candida tropicalis was “b (No detectable activity up to 5 μg/well)”. Besides, the “Anti-fungal activity: pmol/30 mm^2 zone, Candida krusei” value in the data set with Candida krusei is listed as 5,339 pmol/30 mm^2 zone. Also, the “Anti-fungal activity: pmol/30 mm^2 zone, Candida parapsilosis” value with Candida parapsilosis is listed as “b (No detectable activity up to 5 μg/well)”. The “Anti-fungal activity: pmol/30 mm^2 zone, Candida albicans” value in the data set on Candida albicans is on record as “b (No detectable activity up to 5 μg/well)”. For the same molecule, the “C. albicans pmol/30 mm^2 zone” value was “b (No detectable activity up to 5 μg/well)” in data set [7] and >3,350 pmol/30 mm^2 zone in data set [7] (listed as XMP.337P′). In data set [8], the “Activity in Serum t ½ (hr.)” value is “inactive”.
